Assay results: article PMC3787017, “Relative Contributions of Norepinephrine and Serotonin Transporters to Antinociceptive Synergy between Monoamine Reuptake Inhibitors and Morphine in the Rat Formalin Model” (PLoS ONE, 2013)
Where two headings read alike, the source gives them in different places.

Legend:
[1] = system: rat formalin model
[2] = target: T1, SERT (Rattus norvegicus, UniProt P31652); test: in vivo; settings: ip, read-out: SERT occupancy ex vivo
Protocol: (§1) Ex vivo occupancy studies were performed similarly to those described previously [31]. At a single time point at the conclusion of phase 2A (75 min post-dose), a 5 mm^2 piece of frontal cortex was dissected, frozen rapidly, and stored at −80°C until use. Cortical crude homogenates were prepared and the initial rates (vi(vehicle) or vi, respectively) of [^3H]-citalopram (SERT) or [^3H]-nisoxetine (NET) binding determined over a 3-min time course. The % NET or SERT transporter occupancy for compound-dosed animals was calculated using the following equation: 100*(1−vi)/average vi(vehicle).

[3] = Binding in rat brain homogenates, equilibrium dialysis; assay type: in vitro ADME; settings: brain homogenate, equilibrium dialysis 5 hours 37°C, Theravance, Inc., unpublished data
Protocol: (§2) The in vitro unbound fraction of reuptake inhibitors in rat brain homogenates (5 µM) and in rat plasma protein (1 µM) was evaluated using equilibrium dialysis using the HT-Dialysis device (Gayles-Ferry, CT). Brain homogenate or plasma was spiked with test compounds and dialyzed against blank PBS for 5 hours at 37°C. The matrices from both sides of the dialysis membranes were equalized and extracted with acetonitrile. Unbound fractions for each compound were calculated as the ratio of peak areas from the PBS side to peak areas from the tissue or plasma side. Peak areas were corrected for dilution of the tissue made prior to spiking compound. Quantification was via LC/MS/MS.

[4] = Plasma and brain unbound concentrations by LC/MS/MS; settings: rat, 75 min post-dosing
Protocol: Plasma and brain concentrations of reuptake inhibitors were determined by LC/MS/MS. Samples (10–20 µL) were injected in a Hypurity C18 column (50×2.1 mm; 3 µM) with a flow rate of 0.5 mL/min. […] Various gradient elutions were used and the mass spectrometers (Sciex API5000 and API4000; Applied Biosystems, Foster City, CA) were operated in positive ion multiple reaction monitoring mode.
For the pharmacokinetic and bioanalytical analyses, free plasma and free brain concentrations were calculated using the in vitro unbound fractions in rat plasma and brain homogenates, respectively.

[5] = Protein binding in rat plasma, equilibrium dialysis; assay type: in vitro ADME; settings: equilibrium dialysis 5 hours 37°C, Theravance, Inc., unpublished data
Protocol: as §2

[6] = target: T1, SERT; settings: summary over 3 and 10 mg/kg IP (discussion)
Protocol: as §1

[7] = system: rat formalin model; test: animal or person; settings: read-out: ED50, antinociception, drug alone
[8] = system: SERT; settings: therapeutic dose of 60 mg; cited from earlier work
[9] = target: NET (Rattus norvegicus, UniProt Q63380); test: in vivo; settings: ip, read-out: NET occupancy ex vivo
Chain of NET (Q63380 1-617): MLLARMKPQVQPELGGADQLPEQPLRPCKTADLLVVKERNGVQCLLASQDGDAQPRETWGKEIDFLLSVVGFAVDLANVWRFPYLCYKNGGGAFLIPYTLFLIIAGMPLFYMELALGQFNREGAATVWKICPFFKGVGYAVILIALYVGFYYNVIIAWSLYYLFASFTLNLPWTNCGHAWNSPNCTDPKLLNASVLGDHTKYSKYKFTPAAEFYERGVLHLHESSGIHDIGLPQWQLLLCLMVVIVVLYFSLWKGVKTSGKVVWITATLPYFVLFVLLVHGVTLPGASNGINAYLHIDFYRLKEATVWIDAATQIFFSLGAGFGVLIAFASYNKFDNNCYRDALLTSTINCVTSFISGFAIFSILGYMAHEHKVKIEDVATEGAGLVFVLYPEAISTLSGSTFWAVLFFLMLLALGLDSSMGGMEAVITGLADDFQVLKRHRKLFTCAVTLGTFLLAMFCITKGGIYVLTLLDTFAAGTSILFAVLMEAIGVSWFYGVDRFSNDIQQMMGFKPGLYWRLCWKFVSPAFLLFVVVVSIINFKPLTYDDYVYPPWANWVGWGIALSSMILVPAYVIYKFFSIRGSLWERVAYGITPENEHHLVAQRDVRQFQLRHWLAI
Protocol: as §1

[10] = system: rat RotaRod test; settings: morphine 3 mg/kg SC alone, 60 min post-dose; statistically significant
[11] = 10 mg/kg IP, drug alone, mean ± SEM

T1 sequence (P31652 whole entry): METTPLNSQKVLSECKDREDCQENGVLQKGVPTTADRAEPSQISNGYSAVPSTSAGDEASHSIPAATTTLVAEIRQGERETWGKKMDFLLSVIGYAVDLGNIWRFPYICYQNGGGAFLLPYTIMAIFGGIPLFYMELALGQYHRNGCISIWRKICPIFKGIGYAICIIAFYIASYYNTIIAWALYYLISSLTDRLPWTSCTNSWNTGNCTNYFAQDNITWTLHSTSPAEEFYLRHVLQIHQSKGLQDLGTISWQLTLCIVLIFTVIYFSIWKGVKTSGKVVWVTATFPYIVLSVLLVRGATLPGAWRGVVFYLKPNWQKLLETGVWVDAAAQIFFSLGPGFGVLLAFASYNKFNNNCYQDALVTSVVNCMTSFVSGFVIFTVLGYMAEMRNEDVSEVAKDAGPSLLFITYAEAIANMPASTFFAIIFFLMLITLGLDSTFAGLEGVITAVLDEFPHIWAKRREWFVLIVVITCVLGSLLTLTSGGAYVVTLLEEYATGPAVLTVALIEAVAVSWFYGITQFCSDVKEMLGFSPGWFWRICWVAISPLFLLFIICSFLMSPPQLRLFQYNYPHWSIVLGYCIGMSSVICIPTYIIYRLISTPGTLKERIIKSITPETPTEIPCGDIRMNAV

Question: Which inhibition of flinching ([1]; 3 mg/kg IP, drug alone, mean ± SEM) does the source give for `CNCC[C@@H](Oc1ccccc1C)c1ccccc1` [atomoxetine] here?
Answer: 4±11%

Question: What about the inhibition of flinching [1, 11] of the same compound?
Answer: 19±6%

Question: What about the receptor occupancy at 3 mg/kg [2] of the same compound?
Answer: 35 ± 9%

Question: What about the receptor occupancy at 10 mg/kg [2] of the same compound?
Answer: 64 ± 5%

Question: And the fraction unbound at 5 h, 5 µM [3]?
Answer: 0.021

Question: And the concentration at 75 min ([4]; in vivo, 10 mg/kg, [Brain]unbound, atomoxetine 10 mg/kg, − morphine, mean ± SD)?
Answer: 58.2 ± 10.9 ng/g

Question: What about the concentration at 75 min ([4]; in vivo, 10 mg/kg, [Plasma]unbound, atomoxetine 10 mg/kg, − morphine, mean ± SD) of the same compound?
Answer: 50.9 ± 5.8 ng/mL

Question: And the concentration at 75 min ([4]; in vivo, [Brain]unbound, atomoxetine 10 mg/kg + morphine 3 mg/kg)?
Answer: 52.6 ± 14.4 ng/g

Question: What about the concentration at 75 min ([4]; in vivo, [Plasma]unbound, atomoxetine 10 mg/kg + morphine 3 mg/kg) of the same compound?
Answer: 57.9 ± 12.5 ng/mL

Question: What about the fraction unbound at 5 h, 1 µM [5] of the same compound?
Answer: 0.18

Question: What about the “SERT occupancy at doses that exhibited synergy with morphine” value [6] of the same compound?
Answer: 35 to 64%

Question: And the ED50 [7]?
Answer: 27.8 mg/kg

Question: What does the source list for `CNCC[C@H](Oc1cccc2ccccc12)c1cccs1` [duloxetine]?
Answer: inhibition of flinching ([1]; 5 mg/kg IP, drug alone, mean ± SEM): 19±12%; interaction with morphine at higher doses ([1]; higher doses of duloxetine, antinociceptive in the absence of morphine, data not shown): exhibited additivity with morphine; fraction unbound at 5 h, 5 µM [3]: 0.007; concentration at 75 min ([4]; brain, intraperitoneal, 5 mg/kg, [Brain]unbound, duloxetine 5 mg/kg, − ondansetron − morphine): 13 ± 1.5 ng/g; concentration at 75 min ([4]; brain, intraperitoneal, [Brain]unbound, duloxetine 5 mg/kg + ondansetron 3 + morphine 1 mg/kg): 16.5 ± 4.1 ng/g; concentration at 75 min ([4]; plasma, intraperitoneal, 5 mg/kg, [Plasma]unbound, duloxetine 5 mg/kg, − ondansetron − morphine): 4.98 ± 1.4 ng/mL; concentration at 75 min ([4]; plasma, intraperitoneal, [Plasma]unbound, duloxetine 5 mg/kg + ondansetron 3 + morphine 1 mg/kg): 4.55 ± 0.7 ng/mL; fraction unbound at 5 h, 1 µM [5]: 0.031; occupancy of SERT by positron emission tomography [8]: near-maximal occupancy; ED50 [7]: 10.9 mg/kg

Question: With `CCOc1ccccc1O[C@@H](c1ccccc1)[C@@H]1CNCCO1` [esreboxetine] as the compound, how does the inhibition of flinching ([1]; rat, in vivo) read?
Answer: 17±9%

Question: And the receptor occupancy at 10 mg/kg [9]?
Answer: 82 ± 5%

Question: And the receptor occupancy at 10 mg/kg [2]?
Answer: 3 ± 5%

Question: What about the concentration at 75 min ([4]; brain, intraperitoneal, 10 mg/kg, [Brain]unbound, esreboxetine 10 mg/kg, − fluoxetine − morphine) of the same compound?
Answer: 20.4 ± 14.4 ng/g

Question: What about the concentration at 75 min ([4]; brain, intraperitoneal, [Brain]unbound, esreboxetine 10 mg/kg + fluoxetine 1 + morphine 1 mg/kg) of the same compound?
Answer: 25 ± 5.8 ng/g

Question: And the concentration at 75 min ([4]; brain, intraperitoneal, [Brain]unbound, esreboxetine 10 mg/kg + morphine 1 mg/kg)?
Answer: 12.7 ± 9.9 ng/g

Question: And the concentration at 75 min ([4]; plasma, intraperitoneal, 10 mg/kg, [Plasma]unbound, esreboxetine 10 mg/kg, − fluoxetine − morphine)?
Answer: 33.4 ± 12.2 ng/mL

Question: And the concentration at 75 min ([4]; plasma, intraperitoneal, [Plasma]unbound, esreboxetine 10 mg/kg + fluoxetine 1 + morphine 1 mg/kg)?
Answer: 31.2 ± 8.6 ng/mL

Question: What about the concentration at 75 min ([4]; plasma, intraperitoneal, [Plasma]unbound, esreboxetine 10 mg/kg + morphine 1 mg/kg) of the same compound?
Answer: 21 ± 17.7 ng/mL

Question: What does the source list for `CNCCC(Oc1ccc(C(F)(F)F)cc1)c1ccccc1` (stereo not shown) [fluoxetine]?
Answer: inhibition of flinching [1, 11]: 9±4%; fraction unbound at 5 h, 5 µM [3]: 0.0045; fraction unbound at 5 h, 1 µM [5]: 0.067

Question: What does the source list for `CN1CC[C@]23c4c5ccc(O)c4O[C@H]2[C@@H](O)C=C[C@H]3[C@H]1C5` [morphine]?
Answer: inhibition of flinching ([1]; 1 mg/kg SC, alone, mean ± SEM): 18±5%; inhibition of flinching (decrease in nociceptive behavior) ([1]; 3 mg/kg SC, alone, mean ± SEM): 77%±6; reduction in walking time [10]: 65±12%; ED50 [7]: 2.3 mg/kg

Question: Which results are given for `C=CCN1CC[C@]23c4c5ccc(O)c4O[C@H]2C(=O)CC[C@@]3(O)[C@H]1C5` [naloxone]?
Answer: effect on atomoxetine-induced antinociception ([1]; naloxone 5 mg/kg IP, atomoxetine 10 and 30 mg/kg IP): failed to attenuate; effect on morphine-induced antinociception ([1]; naloxone 5 mg/kg IP, morphine 3 mg/kg, p<0.001): effectively blocked

Question: For `Cc1nccn1CC1CCc2c(c3ccccc3n2C)C1=O` (stereo not shown) [ondansetron], which “antinociceptive activity, alone” value ([1]; rat, in vivo) is on record?
Answer: did not exhibit antinociceptive activity

Question: And the “effect on antinociceptive response to duloxetine and morphine” value ([1]; rat, in vivo)?
Answer: potentiated the antinociceptive response

Question: What about the “effect on antinociceptive response to fluoxetine and morphine” value ([1]; rat, in vivo) of the same compound?
Answer: failed to potentiate the antinociceptive response
